Measured values from patent US11078216B2, “Bisaryl amides as NRF2 activators” (GLAXOSMITHKLINE INTELLECTUAL PROPERTY DEVELOPMENT LIMITED, priority 2016, dated 2021).
Structures can show the parent of a compound that is named as a salt.

Tested on: NRF2 (NQO1 activity as marker for NRF2 activation), BEAS-2B cells
Assay: BEAS-2B NQO1 MTT Assay
Format: cell-based
Details: Homo sapiens, EC50 of NQO1 specific activity induction, 48 hours incubation, read-out: EC50
Method in brief: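 BEAS-2B cells were exposed to compound for 48 h at 37° C, 5% CO2, then lysed. NQO1 activity was measured kinetically by MTT reduction at 570 nm over 30 minutes; EC50 came from 3-parameter fit of Delta OD/min versus log concentration.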

| Structure (SMILES) | EC50 |
| --- | --- |
| CC[C@H]1Cc2ccccc2S(=O)(=O)N(Cc2cc([C@@H](c3ccc4c(nnn4CC)c3C)C(C)(C)C(=O)Nc3nnnn3-c3ccccc3)ccc2C)C1 [Example 72, (S)-3-(3-(((S)-4-Ethyl-1,1-dioxido-4,5-dihydrobenzo[f][1,2]thiazepin-2(3H)-yl)methyl)-4-methylphenyl)-3-(1-ethyl-4-methyl-1H-benzo[d][1,2,3]triazol-5-yl)-2,2-dimethyl-N-(1-phenyl-1H-tetrazol-5-yl)propanamide] | 10 to 100 nM |
| CC[C@H]1Cc2ccccc2S(=O)(=O)N(Cc2cc([C@@H](c3ccc4c(nnn4CC)c3C)C(C)(C)C(=O)Nc3nnnn3CC(C)=O)ccc2C)C1 [Example 73, (S)-3-(3-(((S)-4-Ethyl-1,1-dioxido-4,5-dihydrobenzo[f][1,2]thiazepin-2(3H)-yl)methyl)-4-methylphenyl)-3-(1-ethyl-4-methyl-1H-benzo[d][1,2,3]triazol-5-yl)-2,2-dimethyl-N-(1-(2-oxopropyl)-1H-tetrazol-5-yl)propanamide] | 10 to 100 nM |
| CC[C@H]1Cc2ccccc2S(=O)(=O)N(Cc2cc([C@@H](c3ccc4c(nnn4CC)c3C)C(C)(C)C(=O)Nc3nnnn3-c3ccccn3)ccc2C)C1 [Example 74, (S)-3-(3-(((S)-4-Ethyl-1,1-dioxido-4,5-dihydrobenzo[f][1,2]thiazepin-2(3H)-yl)methyl)-4-methylphenyl)-3-(1-ethyl-4-methyl-1H-benzo[d][1,2,3]triazol-5-yl)-2,2-dimethyl-N-(1-(pyridin-2-yl)-1H-tetrazol-5-yl)propanamide] | 1 to 10 nM |
| CC[C@H]1Cc2ccccc2S(=O)(=O)N(Cc2cc([C@@H](c3ccc4c(nnn4CC)c3C)C(C)(C)C(=O)Nc3nnnn3Cc3nccs3)ccc2C)C1 [Example 75, (S)-3-(3-(((S)-4-Ethyl-1,1-dioxido-4,5-dihydrobenzo[f][1,2]thiazepin-2(3H)-yl)methyl)-4-methylphenyl)-3-(1-ethyl-4-methyl-1H-benzo[d][1,2,3]triazol-5-yl)-2,2-dimethyl-N-(1-(thiazol-2-ylmethyl)-1H-tetrazol-5-yl)propanamide] | 1 to 10 nM |
| CC[C@H]1Cc2ccccc2S(=O)(=O)N(Cc2cc([C@@H](c3ccc4c(nnn4CC)c3C)C(C)(C)C(=O)Nc3nnnn3CC(=O)O)ccc2C)C1 [Example 76, 2-(5-((S)-3-(3-(((S)-4-Ethyl-1,1-dioxido-4,5-dihydrobenzo[f][1,2]thiazepin-2(3H)-yl)methyl)-4-methylphenyl)-3-(1-ethyl-4-methyl-1H-benzo[d][1,2,3]triazol-5-yl)-2,2-dimethylpropanamido)-1H-tetrazol-1-yl)acetic Acid] | 10 to 100 nM |
| CC[C@@H]1CN(Cc2cc([C@@H](c3ccc4c(nnn4CC)c3C)C(C)(C)NC(=O)c3nnn[nH]3)ccc2C)S(=O)(=O)c2ccccc2O1 [Example 77, N—((S)-1-(3-(((R)-4-Ethyl-1,1-dioxido-3,4-dihydro-2H-benzo[b][1,4,5]oxathiazepin-2-yl)methyl)-4-methylphenyl)-1-(1-ethyl-4-methyl-1H-benzo[d][1,2,3]triazol-5-yl)-2-methylpropan-2-yl)-1H-tetrazole-5-carboxamide, Trifluoroacetic Acid Salt] | 100 to 1000 nM |
| CC[C@H]1Cc2ccc(C(F)(F)F)cc2S(=O)(=O)N(Cc2cc([C@@H](c3ccc4c(nnn4CC)c3C)C(C)(C)NC(=O)Cc3nnn[nH]3)ccc2C)C1 [Example 78, N—((S)-1-(3-(((S)-4-Ethyl-1,1-dioxido-8-(trifluoromethyl)-4,5-dihydrobenzo[f][1,2]thiazepin-2(3H)-yl)methyl)-4-methylphenyl)-1-(1-ethyl-4-methyl-1H-benzo[d][1,2,3]triazol-5-yl)-2-methylpropan-2-yl)-2-(1H-tetrazol-5-yl)acetamide] | 10 to 100 nM |
| CC[C@@H]1CN(Cc2cc([C@@H](c3ccc4c(nnn4C)c3C)C(C)(C)C(=O)NCCNC)ccc2C)Cc2cnccc2O1 [Example 79, (S)-3-(1,4-Dimethyl-1H-benzo[d][1,2,3]triazol-5-yl)-3-(3-(((R)-2-ethyl-2,3-dihydropyrido[3,4-f][1,4]oxazepin-4(5H)-yl)methyl)-4-methylphenyl)-2,2-dimethyl-N-(2-(methylamino)ethyl)propanamide] | 100 to 1000 nM |
| CC[C@H]1Cc2ccccc2S(=O)(=O)N(Cc2cc([C@H](CC(=O)Nc3cccnc3)c3ccc4c(nnn4CC)c3F)ccc2C)C1 [Example 80, (S)-3-(3-(((S)-4-Ethyl-1,1-dioxido-4,5-dihydrobenzo[f][1,2]thiazepin-2(3H)-yl)methyl)-4-methylphenyl)-3-(1-ethyl-4-fluoro-1H-benzo[d][1,2,3]triazol-5-yl)-N-(pyridin-3-yl)propanamide] | 10 to 100 nM |
| CC[C@H]1Cc2ccccc2S(=O)(=O)N(Cc2cc([C@H](CC(=O)NCCNC)c3ccc4c(nnn4CC)c3F)ccc2C)C1 [Example 81, (S)-3-(3-(((S)-4-Ethyl-1,1-dioxido-4,5-dihydrobenzo[f][1,2]thiazepin-2(3H)-yl)methyl)-4-methylphenyl)-3-(1-ethyl-4-fluoro-1H-benzo[d][1,2,3]triazol-5-yl)-N-(2-(methylamino)ethyl)propanamide] | 10 to 100 nM |
| CCCn1cc(CC[C@@H](c2ccc(C)c(CN3C[C@@H](CC)Oc4ccccc4S3(=O)=O)c2)C(C)(C)C(=O)Nc2cccnc2)nn1 [Example 82, (S)-3-(3-(((R)-4-Ethyl-1,1-dioxido-3,4-dihydro-2H-benzo[b][1,4,5]oxathiazepin-2-yl)methyl)-4-methylphenyl)-2,2-dimethyl-5-(1-propyl-1H-1,2,3-triazol-4-yl)-N-(pyridin-3-yl)pentanamide] | 100 to 1000 nM |
| CCCn1cc(CC[C@H](c2ccc(C)c(CN3C[C@@H](CC)Oc4ccccc4S3(=O)=O)c2)C(C)(C)C(=O)Nc2cccnc2)nn1 [Example 83, (R)-3-(3-(((R)-4-Ethyl-1,1-dioxido-3,4-dihydro-2H-benzo[b][1,4,5]oxathiazepin-2-yl)methyl)-4-methylphenyl)-2,2-dimethyl-5-(1-propyl-1H-1,2,3-triazol-4-yl)-N-(pyridin-3-yl)pentanamide] | 100 to 1000 nM |
| CC[C@@H]1CN(Cc2cc([C@@H](c3ccc4c(nnn4C)c3C)C(C)(C)C(=O)Nc3cccnc3)ccc2Cl)S(=O)(=O)c2ccccc2O1 [Example 84, (S)-3-(4-Chloro-3-(((R)-4-ethyl-1,1-dioxido-3,4-dihydro-2H-benzo[b][1,4,5]oxathiazepin-2-yl)methyl)phenyl)-3-(1,4-dimethyl-1H-benzo[d][1,2,3]triazol-5-yl)-2,2-dimethyl-N-(pyridin-3-yl)propanamide] | 10 to 100 nM |
| CCCn1nnc2c(C)c([C@H](c3ccc(C)c(CN4C[C@@H](CC)Oc5ccccc5S4(=O)=O)c3)C(C)(C)C(=O)Nc3cccnc3)ccc21 [Example 85, (S)-3-(3-(((R)-4-Ethyl-1,1-dioxido-3,4-dihydro-2H-benzo[b][1,4,5]oxathiazepin-2-yl)methyl)-4-methylphenyl)-2,2-dimethyl-3-(4-methyl-1-propyl-1H-benzo[d][1,2,3]triazol-5-yl)-N-(pyridin-3-yl)propanamide] | 10 to 100 nM |
| CC[C@@H]1CN(Cc2cc([C@@H](c3ccc4c(nnn4CC)c3C)C(C)(C)C(=O)Nc3cnc(Cl)nc3)ccc2C)S(=O)(=O)c2cccnc2O1 [Example 86, (S)—N-(2-Chloropyrimidin-5-yl)-3-(3-(((R)-4-ethyl-1,1-dioxido-3,4-dihydro-2H-pyrido[2,3-b][1,4,5]oxathiazepin-2-yl)methyl)-4-methylphenyl)-3-(1-ethyl-4-methyl-1H-benzo[d][1,2,3]triazol-5-yl)-2,2-dimethylpropanamide] | 1 to 10 nM |
